Patent US20260027123A1, “Compositions for Modulating Lipoxygenase and Methods of Using Same” (The Regents of the University of California, priority 2022, published 2026)
Several values for one entry are separate records, joined by “and”; a condition that tells them apart may be missing. Equal values may be shown once.

Tests used:
Format in all cases: physicochemical
[1] = Viscosity of the composition; settings: Table 2
[2] = Soluble after 24 hours at room temperature; settings: Table 2, 20/80 DMA/PEG400
[3] = Compositions prepared by mixing with solvent and sonication; soluble yes/no; settings: Table 2
Description: (§1) Compositions were generally prepared by mixing with solvent and sonicated at room temperature in a water bath for 10 minutes. After a 15 minute waiting period at room temperature, the composition was sonicated again for 15 minutes at room temperature. Table 1 provides a list of formulations prepared for Compound 27332 according to certain embodiments. Table 2 provides a list of formulations prepared for 5-(methylamino)-2-naphthalen-1-yl-1,3-oxazole-4-carbonitrile (Compound ML351) according to certain embodiments. Compositions were analyzed by absorbance spectrometry at 340 nm to characterize the solubility of the compounds in each solvent mixture. Measurements were taken using a Cary60 spectrophotometer. Briefly, 2 ml absolute EtOH was added to cuvette, and instrument blanked. Then 2 μl of the excipient buffer was added, and scanned from 450 nm to 200 nm in order to confirm no large/interfering peak at 340 nm. Next, 2 μl of […] (in absolute EtOH) was added to the cuvette and scanned (450 nm to 200 nm)—this was repeated twice more for a total of three measurements. The difference in Abs(340) was determined for each subsequent addition. These three measurements were used to calculate the concentration (in molarity) using previously determined epsilon, and converted back to mg/ml.

[4] = Absorbance spectrometry at 340 nm to characterize solubility in each solvent mixture (measured concentration); settings: Table 2
Description: as §1

[5] = 20/80 DMA/PEG400, Approx Conc. 50 mg/ml
[6] = 20/80 DMA/PEG400, Approx Conc. 78.1 mg/ml
[7] = 20/80 DMA/PEG400, Approx Conc. 90.5 mg/ml
[8] = 20/80 Diethylacetamide/PEG400, Approx Conc. 50 mg/ml
[9] = Intralipid, Approx Conc. 0.250 mg/ml

Viscosity [1, 5]: low
Viscosity [1, 6]: low
Viscosity [1, 7]: low
Viscosity [1, 8]: low
Viscosity [1, 9]: low
Soluble after 24 hours at Room Temperature ([2]; Approx Conc. 50 mg/ml): yes
Soluble after 24 hours at Room Temperature ([2]; Approx Conc. 78.1 mg/ml): yes
Soluble [3, 5]: yes
Soluble [3, 6]: yes
Soluble [3, 7]: No
Soluble [3, 8]: yes
Soluble [3, 9]: yes
Measured Conc. [4, 5]: 46.1 mg/mL
Measured Conc. [4, 6]: 75.7 mg/mL
Measured Conc. [4, 7]: 66.3 mg/mL and 54.9 mg/mL
Measured Conc. [4, 8]: 52.5 mg/mL and 45.5 mg/mL
Measured Conc. [4, 9]: 0.315 mg/mL
SMILES: CNc1oc(-c2cccc3ccccc23)nc1C#N [ML351, 5-(methylamino)-2-naphthalen-1-yl-1,3-oxazole-4-carbonitrile]
